Consider two molecules from patent US9371295B2, “Compounds for use in the treatment of disorders that are ameliorated by inhibition of HDAC” (IRBM—Science Park S.p.A., priority 2012, dated 2016).

In data set [1] the test system is erythroid precursor cells (ErPC) from β-thalassemia patients. As to the kind of experiment: Fetal hemoglobin production in erythroid precursor cells from β-thalassemia patients (HPLC). Format: cell-based, human. The text has this:
Stimulation of the production of mRNA for γ-globin in human erythroid precursors isolated from peripheral blood was detected by using the technique by Fibach (Fibach, E. Hemoglobin, 1998, 22, 445-458; Blood, 1993, 81, 1630-1635). Blood samples were obtained from subjects after written informed consent and the local ethical commette approved the study. This technique provides for two stages: in the first stage, the cells isolated from peripheral blood of an healthy subject or a subject suffering from a hemopoietic pathology, such as sickle cell anaemia or beta-thalassemia, are sown in a culture medium to which 10% of conditioned medium derived from the vescicle carcinoma cell line 5637 has been added. The second stage consists in cultivating the isolated cells in a suitable culture medium, supplemented with erythropoiethin. In short, mononuclear cells were isolated from peripheral blood samples of normal donors and patients by Ficoll-Hypaque density gradient centrifugation and seeded in alpha-minimal essential medium (Sigma-Aldrich) supplemented with 10% FBS (Analitica de Mori), 1 μg/mL cyclosporin A (Sigma-Aldrich), and 10% conditioned medium from the 5637 bladder carcinoma cell line and 10 ng/ml stem cell factor (PeproTech EC Ltd, London, England). After 7-day incubation in this phase I culture, the non-adherent cells were harvested, washed, and recultured in fresh medium composed of α-medium, 30% FBS, 1% de-ionized bovine serum albumin (Sigma-Aldrich), 10^−5 M β-mercaptoethanol, 2 mM L-glutamine, 10^−6 M dexamethasone, 1 U/ml human recombinant erythropoietin (Tebu-bio, Magenta, MI, Italy) and 10 ng/ml stem cell factor. This part of the culture is referred to as phase II. Compounds were added on day 4-5 of phase II and cells were harvested on day 12. All cultures were incubated at 37° C., under an atmosphere of 5% CO2 in air, with extra humidity. The expression of the genes encoding for γ-globin was evaluated by quantitative RT-PCR. The production of HbF was analyzed by HPLC. […]

Data set [2] is described as follows: Intrinsic clearance in pooled human liver microsomes. Format: in vitro ADME. As to conditions: pH 7.4. A general note: Liver microsomes are vesicles of endoplasmic reticulum, rich in cytochrome P450 enzymes.
Data set [3] in a line: Intrinsic clearance in pooled mouse liver microsomes. It counts as in vitro ADME. The settings on record: pH 7.4.
Data set [4] in a line: Intrinsic clearance in pooled rat liver microsomes. It counts as in vitro ADME. As to conditions: pH 7.4. The protocol: Assays were performed in presence of 0.5 mg/ml of microsomal protein, with a NADPH-generating system (1 mM NADP, 2.5 mM glucose 6-phosphate and 2 U/ml glucose 6-phosphate dehydrogenase) in 100 mM potassium phosphate buffer containing 3.3 mM MgCl2 (pH 7.4). Tested compounds were stored in 10 mM DMSO solution and incubated at 1 μM final concentration (final DMSO concentration in incubation less than 0.1%). Microsomes and substrates were preincubated at 37° C. for 5 min and then the enzymatic reactions were initiated by the addition of cofactors and incubated at 37° C. for up to 90 min. Incubations were terminated by the addition of an equivalent volume of cold acetonitrile containing I.S. Control incubations, where the substrate was incubated in the same buffer system containing pRLM without the NADPH-generating system, were also run.

Data set [5] is described as follows: Rat PK studies, oral dose. Format: in vivo, Sprague-Dawley rats. The settings on record: male, Sprague-Dawley, plasma, po 10 mg/kg. The method, then: Rats Male Sprague-Dawley rats (250-350 g) were used for the absorption disposition studies. In each rat an indwelling cannula was implanted in the right jugular vein for blood sampling. The surgery was performed under light anaesthesia (Ketamine-Xilazine (85 mg/kg and 2.5 mg/kg respectively i.m.) one day prior the experiment). During the kinetic study, all animals were housed individually in plastic metabolism cages, and were unrestrained throughout the experiment. Compounds (6 mg/mL) were dissolved in 20% DMSO/60% PEG400/20% water for intravenous administration, and dissolved or suspended in 1% methylcellulose for oral administration (2 mg/ml). After an overnight fast, the rats received an i.v. (via caudal vein) or an oral dose of the compound. Blood samples were collected at different times point after dosing. Plasma was separated immediately after blood sampling by centrifugation, and the plasma samples were kept frozen (−20° C.) until assayed by LC/MS/MS.
Analytical procedures: Plasma samples were extracted using Liquid Handling Robot MultiProbe Packard by protein precipitation with acetonitrile. Then the samples were centrifuged (3000 rpm×15 min at 4° C.) and the supernatant transferred and dried under nitrogen. The samples were reconstituted in water/acetonitrile 90/10 and then injected directly into an HPLC column. Sample analyses were performed using a an API 3000 or/and API 2000 or/and API 4000 Mass Spectrometer interfaced via the Turbo Ion Spray (ESI)/APCI to an LC system consisting of an HTS PAL CTC autosampler and an Agilen HP 1100 Binary Pump. The results are calculated using Analyst Software linear regression with 1/x*x weighting. The Assay Precision was calculated for the Quality Controls by Watson Lims database.
Pharmacokinetic Analysis: The plasma clearance (CLp) of the compounds were calculated (using Watson PK program) as the dose divided by the area under the plasma concentration-time curve from time zero to infinity (AUC0-∞). The apparent half-life was estimated from the slope of the terminal phase of the log plasma concentration-time data. The volume of distribution (Vdss) was determined using the following noncompartmental method: Vdss=(Dose IV×AUMC)/(AUC0-∞)2
where AUMC is the total area under the first moment of the drug concentration time curve from time zero to infinity. Bioavailability was estimated as the AUC0-∞ ratio following oral and intravenous administration, normalized for differences in dose.

Several values for one entry are separate records, joined by “and”; a condition that tells them apart may be missing. Equal entries are not always repeated. Some results are limits rather than exact numbers.

For orientation: microsomal CLint means a measure of how fast metabolising enzymes remove a compound, apart from limits set by blood flow. Read a low microsomal CLint as slow turnover. As a reminder, the AUC is concentration integrated over time. A lower AUC goes with less exposure. A word on the Cmax: it is the highest concentration seen after dosing. On to `CCC(=O)CCCCC[C@H](NC(=O)C1CN(C)C1)c1ncc(-c2cc3ccccc3nc2OC)o1` [Compound 2, (S)-N-(1-(5-(2-methoxyquinolin-3-yl)oxazol-2-yl)-7-oxononyl)-1-methylazetidine-3-carboxamide], for which the “% of fetal hemoglobin production” value in data set [1] (ErPC from β-thalassemia patients 1-3 (one line per patient), 100 nM) was 78.6% and 85.5% and 81.5%. Besides, in data set [1] (ErPC from β-thalassemic patients, 100 nM, in words), the “proportion of HbF in lysates (cation-exchange HPLC, FIG. 1)” value is “Increase in the proportion of HbF is detectable”. Also, the “induction of HbF in erythroid precursor cells (ErPC)” value in data set [1] (ErPC from β-thalassemic patients, in words) was “strong inducer of HbF”. The results for the microsomal CLint at 1 μM in data set [2], in data set [3] and in data set [4] were 13 µL/min/mg, 27 µL/min/mg and 33 µL/min/mg, respectively. In data set [5], the AUC came out at 40 µM·h. This molecule also showed a Cmax in data set [5] of 2790 nM.
As for `CCC(=O)CCCCC[C@H](NC(=O)C1CN(C)C1)c1ncc(-c2cc3ccccc3n(C)c2=O)o1` [Compound 92, (S)-1-methyl-N-(1-(5-(1-methyl-2-oxo-1,2-dihydroquinolin-3-yl)oxazol-2-yl)-7-oxononyl)azetidine-3-carboxamide], the microsomal CLint at 1 μM in data set [2] is less than 5 µL/min/mg; in data set [3], 13 µL/min/mg; in data set [4] it was 15 µL/min/mg.
